# Measurements published in patent US20230117034A1, “PYRAZOLOTRIAZINES” (Bayer Aktiengesellschaft, priority 2019, published 2023).
# pIC50: −log10 of the molar value.
# What was measured:
# [1] = molecular target: T1, CDK12 (nuclear staining in CAL-120 cells) (Homo sapiens, UniProt Q9NYV4); assay: CDK12 nuclear protein level: immunofluorescence/high content analysis (CAL-120); type: cell-based; details: for DC50: CAL-120 cells, 24 h, immunofluorescence, 50% reduction of nuclear CDK12 staining intensity, median, read-out: CDK12 degradation IF, DC50- [mol/l] (median); for (IC50 CDK12 high ATP) to (Degradation DC50 CDK12) ratio: ratio of IC50 CDK12 high ATP kinase assay to DC50 CDK12 degradation (IF, CAL-120)
# T1 construct: endogenous in cells; host or cells: CAL-120 human breast cancer cells (DSMZ ACC 459)
# T1 sequence (Q9NYV4 whole entry): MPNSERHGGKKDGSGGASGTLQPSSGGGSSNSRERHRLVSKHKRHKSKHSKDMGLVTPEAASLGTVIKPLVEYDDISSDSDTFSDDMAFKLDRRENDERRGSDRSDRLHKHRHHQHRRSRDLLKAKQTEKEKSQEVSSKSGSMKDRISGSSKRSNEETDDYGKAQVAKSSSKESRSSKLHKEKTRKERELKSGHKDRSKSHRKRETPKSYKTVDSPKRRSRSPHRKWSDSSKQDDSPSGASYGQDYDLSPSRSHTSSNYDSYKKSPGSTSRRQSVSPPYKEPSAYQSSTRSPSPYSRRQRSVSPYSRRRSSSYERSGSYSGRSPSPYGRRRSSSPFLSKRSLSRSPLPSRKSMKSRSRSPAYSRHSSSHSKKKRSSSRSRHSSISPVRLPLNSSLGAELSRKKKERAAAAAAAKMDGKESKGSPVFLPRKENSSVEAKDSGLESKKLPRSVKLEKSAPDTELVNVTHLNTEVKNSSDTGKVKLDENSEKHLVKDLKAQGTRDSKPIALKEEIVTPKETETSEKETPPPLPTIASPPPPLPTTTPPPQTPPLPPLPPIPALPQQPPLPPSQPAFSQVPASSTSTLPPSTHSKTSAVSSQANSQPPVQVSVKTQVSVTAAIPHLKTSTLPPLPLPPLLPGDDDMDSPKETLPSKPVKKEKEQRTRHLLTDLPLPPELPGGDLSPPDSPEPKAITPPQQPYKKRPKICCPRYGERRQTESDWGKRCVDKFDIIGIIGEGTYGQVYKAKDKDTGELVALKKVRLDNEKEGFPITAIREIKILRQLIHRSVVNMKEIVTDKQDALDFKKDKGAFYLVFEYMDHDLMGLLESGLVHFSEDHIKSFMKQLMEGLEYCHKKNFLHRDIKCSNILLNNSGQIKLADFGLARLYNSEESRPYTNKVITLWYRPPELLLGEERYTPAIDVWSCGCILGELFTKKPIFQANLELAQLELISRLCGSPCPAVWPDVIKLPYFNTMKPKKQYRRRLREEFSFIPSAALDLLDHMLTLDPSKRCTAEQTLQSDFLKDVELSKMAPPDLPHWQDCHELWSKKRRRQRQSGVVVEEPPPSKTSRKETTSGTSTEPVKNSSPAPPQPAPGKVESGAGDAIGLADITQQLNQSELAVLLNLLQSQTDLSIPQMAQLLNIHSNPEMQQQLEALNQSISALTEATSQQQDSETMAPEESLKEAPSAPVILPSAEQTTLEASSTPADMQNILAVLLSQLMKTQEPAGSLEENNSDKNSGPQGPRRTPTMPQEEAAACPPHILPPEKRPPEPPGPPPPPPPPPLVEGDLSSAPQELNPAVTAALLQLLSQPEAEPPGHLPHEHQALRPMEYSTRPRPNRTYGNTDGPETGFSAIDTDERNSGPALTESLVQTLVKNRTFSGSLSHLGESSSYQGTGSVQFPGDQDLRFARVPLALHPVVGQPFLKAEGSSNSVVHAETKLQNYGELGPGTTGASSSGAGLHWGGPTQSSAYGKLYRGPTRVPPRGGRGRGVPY
# T1 sequence (O75909 whole entry partner): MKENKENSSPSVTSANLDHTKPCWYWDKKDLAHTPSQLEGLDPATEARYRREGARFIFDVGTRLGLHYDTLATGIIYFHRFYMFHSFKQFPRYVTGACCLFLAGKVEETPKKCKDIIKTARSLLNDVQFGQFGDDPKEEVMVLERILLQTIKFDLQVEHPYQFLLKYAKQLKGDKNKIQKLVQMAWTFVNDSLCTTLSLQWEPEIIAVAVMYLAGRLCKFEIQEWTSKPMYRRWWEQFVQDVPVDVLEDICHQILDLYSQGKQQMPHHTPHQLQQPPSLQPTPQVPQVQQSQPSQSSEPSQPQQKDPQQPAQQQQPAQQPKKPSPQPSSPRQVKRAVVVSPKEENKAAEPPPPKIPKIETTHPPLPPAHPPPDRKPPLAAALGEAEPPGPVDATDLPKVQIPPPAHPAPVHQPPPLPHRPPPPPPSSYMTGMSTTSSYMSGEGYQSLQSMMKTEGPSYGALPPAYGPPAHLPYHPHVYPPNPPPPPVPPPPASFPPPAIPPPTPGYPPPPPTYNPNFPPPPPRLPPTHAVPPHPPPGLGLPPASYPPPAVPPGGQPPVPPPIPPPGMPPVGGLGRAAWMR
# How it was run: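 DC50 is the degrader concentration that halves nuclear CDK12 immunofluorescence relative to controls, measured by high-content imaging. CAL-120 cells were exposed to compound for 24 h at 37 °C before PFA fixation, and signal was normalized to DMSO and control wells.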
# [2] = tested on: BRCA1 mRNA expression in MDA-MB-231 cells; assay: qRT-PCR assay: BRCA1 mRNA expression in MDA-MB-231; type: cell-based, human; details: Homo sapiens, MDA-MB-231, Inhibition of BRCA1 mRNA expression in MDA-MB-231 cells; median; read-out: RTqPCR-MDA-MB-231, IC50, BRCA1 (median)
# How it was run: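 Human breast cancer cells, 200,000/well, were treated with test agents for 24 h without interruption after a 24 h settling period. Gene expression came from qPCR on cDNA made from 600 ng RNA, relative to GAPDH.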
# [3] = tested on: CAL-120, human breast adenocarcinoma cells; assay: Proliferation assay CAL-120 (crystal violet, 4 days); type: cell-based; details: Homo sapiens, CAL-120, 96 h, CAL-120 cells, median, read-out: Prolif-CAL-120, IC50-[mol/l] (median)
# How it was run: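 Crystal violet proliferation read-out after 4 days of compound exposure (0.01-10 µmol/L; solvent 0.1% DMSO). Extinction at 595 nm, set between zero-point (0%) and vehicle (100%), fitted with 4 parameters to give IC50.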
# [4] = molecular target: T2, CYCLIN K (nuclear staining in CAL-120 cells) (Homo sapiens, UniProt O75909); assay: CYCLIN K nuclear protein level: immunofluorescence high content analysis (CAL-120); type: cell-based; details: 24 h, 50% reduction of nuclear CCNK staining intensity, median, read-out: CYCLIN K degradation IF, DC50-[mol/l] (median)
# T2 construct: endogenous in cells; host or cells: CAL-120 human breast cancer cells (DSMZ ACC 459)
# T2 sequence (O75909 whole entry): as the sequence (O75909 whole entry partner) above
# T2 sequence (Q9NYV4 whole entry partner): as the sequence (Q9NYV4 whole entry) above
# How it was run: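 Readout is automated confocal image analysis of nuclear cyclin K immunofluorescence (Hoechst nuclei) after PFA fixation. Cells were CAL-120, exposed to compound dose-response 24 h at 37 °C; values are DC50 for halving nuclear CCNK signal relative to DMSO and control wells.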
DC50 [1],(IC50 CDK12 high ATP) to (Degradation DC50 CDK12) ratio [1],pIC50 [2],pIC50 [3],DC50 [4],SMILES
3.43 nM,224,8.32,8.20,0.843 nM,"N#Cc1cccc(-c2nnc(CNc3nc(N4CCOCC4)nc4c(Br)cnn34)[nH]2)c1 [Example 55, 3-[5-({[8-bromo-2-(morpholin-4-yl)pyrazolo[1,5-a][1,3,5]triazin-4-yl]amino}methyl)-4H-1,2,4-triazol-3-yl]benzonitrile]"
20.5 nM,80,7.59,7.63,2.83 nM,"FC(F)(F)c1cccc(-c2nnc(CNc3nc(N4CCOCC4)nc4c(Br)cnn34)[nH]2)c1 [Example 52, 8-bromo-2-(morpholin-4-yl)-N-({5-[3-(trifluoromethyl)phenyl]-4H-1,2,4-triazol-3-yl}methyl)pyrazolo[1,5-a][1,3,5]triazin-4-amine]"
69.2 nM,32,7.00,7.05,44.4 nM,"Clc1ccc(-c2nnc(CNc3nc(N4CCOCC4)nc4c(Br)cnn34)[nH]2)cc1 [Example 45, 8-bromo-N-{[5-(4-chlorophenyl)-4H-1,2,4-triazol-3-yl]methyl}-2-(morpholin-4-yl)pyrazolo[1,5-a][1,3,5]triazin-4-amine]"
14.7 nM,127,7.35,7.36,9.95 nM,"FC(F)(F)c1cnn2c(NCc3nnc(-c4ccccc4)[nH]3)nc(N3CCOCC3)nc12 [Example 427, 2-(morpholin-4-yl)-N-[(5-phenyl-4H-1,2,4-triazol-3-yl)methyl]-8-(trifluoromethyl)pyrazolo[1,5-a][1,3,5]triazin-4-amine]"
41.7 nM,147,7.16,7.36,5.34 nM,"Brc1cnn2c(NCc3nnc(-c4ccccc4)[nH]3)nc(N3CCCCC3)nc12 [Example 49, 8-bromo-N-[(5-phenyl-4H-1,2,4-triazol-3-yl)methyl]-2-(piperidin-1-yl)pyrazolo[1,5-a][1,3,5]triazin-4-amine]"
37.8 nM,150,7.18,7.27,10.2 nM,"Brc1cnn2c(NCc3nnc(-c4ccccn4)[nH]3)nc(N3CCOCC3)nc12 [Example 54, 8-bromo-2-(morpholin-4-yl)-N-{[5-(pyridin-2-yl)-4H-1,2,4-triazol-3-yl]methyl}pyrazolo[1,5-a][1,3,5]triazin-4-amine]"

# Continued, compound first:
SMILES,DC50 [1],(IC50 CDK12 high ATP) to (Degradation DC50 CDK12) ratio [1],pIC50 [2],pIC50 [3],DC50 [4]
"N#Cc1cnn2c(NCc3nc4ccccc4[nH]3)nc(N3CCOCC3)nc12 [Example 43, 4-{[(1H-benzimidazol-2-yl)methyl]amino}-2-(morpholin-4-yl)pyrazolo[1,5-a][1,3,5]triazine-8-carbonitrile]",9.58 nM,>1754,7.16,6.88,5.35 nM
"Cc1cnn2c(NCc3nc4c(F)c(F)ccc4[nH]3)nc(N(C)CC(C)(C)O)nc12 [Example 395, 1-[(4-{[(4,5-difluoro-1H-benzimidazol-2-yl)methyl]amino}-8-methylpyrazolo[1,5-a][1,3,5]triazin-2-yl)(methyl)amino]-2-methylpropan-2-ol]",8 nM,800,7.83,7.95,0.884 nM
"C[C@@H]1COCCN1c1nc(NCc2nc3ccccc3[nH]2)n2ncc(Br)c2n1 [Example 56, N-[(1H-benzimidazol-2-yl)methyl]-8-bromo-2-[(3R)-3-methylmorpholin-4-yl]pyrazolo[1,5-a][1,3,5]triazin-4-amine]",15.1 nM,352,7.66,7.76,2.19 nM
"Brc1cnn2c(NCc3nc4ccccc4[nH]3)nc(N3CCCCC3)nc12 [Example 46, N-[(1H-benzimidazol-2-yl)methyl]-8-bromo-2-(piperidin-1-yl)pyrazolo[1,5-a][1,3,5]triazin-4-amine]",18 nM,186,7.90,6.62,1.54 nM
"Brc1cnn2c(NCc3nc4ccccc4[nH]3)nc(N3CCCC3)nc12 [Example 47, N-[(1H-benzimidazol-2-yl)methyl]-8-bromo-2-(pyrrolidin-1-yl)pyrazolo[1,5-a][1,3,5]triazin-4-amine]",5.75 nM,1252,7.63,7.62,3.98 nM
"FC(F)Cc1cnn2c(NCc3nc4ccccc4[nH]3)nc(N3CCOCC3)nc12.O=C(O)C(F)(F)F [Example 444, trifluoroacetic acid N-[(1H-benzimidazol-2-yl)methyl]-8-(2,2-difluoroethyl)-2-(morpholin-4-yl)pyrazolo[1,5-a][1,3,5]triazin-4-amine]",7.88 nM,1080,7.29,7.83,5.91 nM
"CN1CCN(c2nc(NCc3nc4c(F)c(F)ccc4[nH]3)n3ncc(C4CC4(F)F)c3n2)CC1 (stereo not shown) [Example 429, N-[(4,5-difluoro-1H-benzimidazol-2-yl)methyl]-8-(2,2-difluorocyclopropyl)-2-(4-methylpiperazin-1-yl)pyrazolo[1,5-a][1,3,5]triazin-4-amine]",4.32 nM,>4626,8.13,8.05,3.86 nM
"OC[C@H]1CCCCN1c1nc(NCc2nc3ccccc3[nH]2)n2ncc(Br)c2n1 [Example 60, [(2R)-1-(4-{[(1H-benzimidazol-2-yl)methyl]amino}-8-bromopyrazolo[1,5-a][1,3,5]triazin-2-yl)piperidin-2-yl]methanol]",9.25 nM,202,7.34,7.59,3.05 nM
"Fc1ccc2[nH]c(CNc3nc(N4CCOCC4)nc4c(C(F)(F)F)cnn34)nc2c1F [Example 426, N-[(4,5-difluoro-1H-benzimidazol-2-yl)methyl]-2-(morpholin-4-yl)-8-(trifluoromethyl)pyrazolo [1,5-a][1,3,5]triazin-4-amine]",0.751 nM,32,8.49,8.45,0.511 nM
"Fc1ccc2[nH]c(CNc3nc(N4CCOCC4)nc4c(-c5nccs5)cnn34)nc2c1F [Example 413, N-[(4,5-difluoro-1H-benzimidazol-2-yl)methyl]-2-(morpholin-4-yl)-8-(1,3-thiazol-2-yl)pyrazolo [1,5-a][1,3,5]triazin-4-amine]",19.8 nM,>1012,7.08,7.16,6.91 nM
"CCc1cnn2c(NCc3nc4c(F)c(F)ccc4[nH]3)nc(N3CCOCC3)nc12 [Example 432, N-[(4,5-difluoro-1H-benzimidazol-2-yl)methyl]-8-ethyl-2-(morpholin-4-yl)pyrazolo[1,5-a][1,3,5]triazin-4-amine]",0.948 nM,2425,8.75,8.44,0.353 nM
"Brc1cnn2c(NCc3nc4ccccc4[nH]3)nc(N3CC4(COC4)C3)nc12 [Example 48, N-[(1H-benzimidazol-2-yl)methyl]-8-bromo-2-(2-oxa-6-azaspiro[3.3]heptan-6-yl)pyrazolo[1,5-a][1,3,5]triazin-4-amine]",20.7 nM,>276,7.03,6.92,7.03 nM
"Fc1ccc2[nH]c(CNc3nc(N4CCOCC4)nc4c(CC(F)F)cnn34)nc2c1F.O=C(O)C(F)(F)F [Example 425, trifluoroacetic acid N-[(4,5-difluoro-1H-benzimidazol-2-yl)methyl]-8-(2,2-difluoroethyl)-2-(morpholin-4-yl)pyrazolo[1,5-a][1,3,5]triazin-4-amine]",2.51 nM,852,8.57,8.51,0.545 nM
"Fc1ccc2[nH]c(CNc3nc(N4CCOCC4)nc4c(-c5ccnnc5)cnn34)nc2c1F [Example 417, N-[(4,5-difluoro-1H-benzimidazol-2-yl)methyl]-2-(morpholin-4-yl)-8-(pyridazin-4-yl)pyrazolo[1,5-a][1,3,5]triazin-4-amine]",2.75 nM,>2815,7.84,8.04,1.25 nM
